# Data as given in patent publication US20230073125A1, “PERIODONTAL MICROPATCH AND USES THEREOF” (priority 2019, published 2023).
# Tests used:
# [1] = Cytokine loading and release from microparticles/microneedles in artificial saliva, ELISA; type: physicochemical; conditions: 37° C., up to four weeks
# From the text: For high quality periodontal treatment, the periodontal patch should act as an immunomodulator by delivering small molecules drugs and/or bioactive molecules to control infection (e.g., with antibiotics), modulate inflammation (e.g., FIG. 11A) and induce the recovery of alveolar bone. Here we used same method as described in Approach 1 to fabricate microneedles (FIG. 10A). IL-4- or TGF-β-loaded silica-heparin microparticles mixed with polymer (e.g., alginate) solution and cast into the molds to generate the microneedle patches. […] At selected time intervals (every 12 hour), the medium was collected and analyzed for released proteins using ELISA Kits. At the end of release study, the remaining proteins extracted from the particles/needles by dissolving them and the percentage of cumulative released proteins measured according to methods explained before. The released percentage measured based on the ratio of the amount released at each time point to the amount that was initially loaded. […]
# The microneedle chemical formulation can be further modified for co-encapsulation of both small molecule antibiotics (encapsulated in PLGA NPs) and cytokines (encapsulated in alginate-heparin microparticles), which was integrated and addressed in Aim 3. […] At selected time intervals (every 12 hours), media was collected and analyzed for released proteins using ELISA. […]
# periodontal disease = conditions: 40 ng local administration per treatment, rat model; cited from earlier work
# M1 (and M0) macrophages = assay: Macrophage polarization, transwell, flow cytometry and qPCR; type: cell-based, rat; conditions: treatment with IL-4; qPCR of markers and cytokines
# Method: Costar transwell inserts (pore size 1 μm) was used for assessing the effectiveness of the released factor(s) on the polarization of macrophages and differentiation of T cells. Patches containing cytokines (4 experimental groups: no drug, IL-4 alone, TGF-β alone and IL-4/TGF-β) placed in the upper chamber. The bottom chamber contains artificial saliva modified media and 10^5 of either primary monocytes or naïve T cells or both (5×10^4). The isolation of primary monocytes was performed as described. Naïve T cells isolated using EasySep Rat T Cell Isolation Kit (STEMCELL Technologies) according to manufacturer's protocol. The change in macrophage phenotypes tested at different time points (day 1-5) using flow cytometry by checking the surface markers (M1): major histocompatibility complex class II (MHC II), CCR7, CD80 and CD86; M2: CD163 (M2c) and CD206 (M2a)). […] Quantitative PCR (qPCR) was used to determine the gene expression of these inflammatory cytokines and cellular markers (as exemplified in FIG. 11D). […] The expression of Foxp3 was measured by flow cytometry. […]
# Costar transwell inserts (pore size 1 μm) were used to assess the effectiveness of released factor(s) on macrophage polarization and T cell differentiation. […] Quantitative PCR (qPCR) was used to determine gene expression of inflammatory cytokines and cellular markers (as exemplified in FIG. 23A-23B). […]
# naïve CD4+ T-cells = assay: Induced Treg differentiation, Foxp3/CD25 by flow cytometry; type: cell-based, rat; conditions: soluble (no particles) TGF-β
# Method: Activation and differentiation of T cells were tested by considering expression of CD25 surface activation marker (FIG. 11C) as well as intracellular expression of the transcription factor Foxp3. […] We also tested the ability of controlling differentiation of naïve T-cells into induced Treg by providing sustained release TGF-β from alginate-based particles. We cultured rigorously naïve CD4+ T-cells with anti-CD3 and anti-CD28 for 4 days in the wells containing the microparticles loaded with TGF-β at different concentrations and compared them to the soluble (no particles) counterparts at identical concentrations. The expression of Foxp3 was measured by flow cytometry. […] T cell activation and differentiation was tested by expression of CD25 surface activation marker and intracellular expression of the transcription factor Foxp3.
Substance,cytokine release from designed platforms [1],bone regeneration (periodontal disease),periodontal disease progression (periodontal disease),macrophage reprogramming (M1 (and M0) macrophages),Foxp3 expression at very high soluble concentrations (naïve CD4+ T-cells)
interleukin 4 [IL-4],prolonged release,helps regenerate bone,reduces periodontal disease progression,successful reprograming of M1 (and M0) macrophages toward M2,–
transforming growth factor beta [TGF-β],prolonged release,–,–,–,plateaued and was even slightly suppressed
